Entries after “also recorded” stand apart in the source; their conditions may differ.
Experiments:
[1] = tested on: KS483 mouse osteoprogenitor cells; assay: Osteoblast differentiation assay (cellular ALP activity at day 8); assay type: cell-based
Procedure: In the third part, KS483 mouse osteoprogenitor cells were cultured for 8 days, after which the formed mature osteoblasts were quantitated by measuring the amount of intracellular alkaline phosphatase (ALP) activity. […] The effects on osteoblasts were studied using KS483 mouse osteoprogenitor cells that can be induced to differentiate into bone-forming osteoblasts. […] In the osteoblast differentiation assay, the cells were cultured for 8 days, after which the formed mature osteoblasts were quantitated by measuring the amount of intracellular alkaline phosphatase (ALP) activity. […] A culture system was established that can be used as an in vitro model for studying the effects of anabolic and estrogen-like compounds on osteoblast differentiation and activity. In this culture system mouse KS483 cells first proliferate and then differentiate into osteoblasts capable of forming mineralized bone nodules in the presence of ascorbic acid and ß-glycerophosphate (Fagerlund et al. 2009). The test and reference compounds are added into the cell cultures concomitantly with the medium change, and their effects on the differentiation and activity of osteoblasts are determined. Cellular ALP, a marker of osteoblast differentiation, is determined from the cell lysates as described earlier (Lowry et al. 1954). Secreted PINP, a marker of organic bone matrix formation, is determined from the culture medium using a commercially available method (Rat/Mouse PINP EIA, IDS Ltd, Boldon, UK). Calcium deposition, an index of inorganic bone matrix formation, is measured using a commercially available calcium assay (Roche Diagnostics). Mouse KS483 cells were cultured in T-75 tissue culture flasks in aMEM supplemented with 10% charcoal-stripped fetal bovine serum until 80-90% confluence. The cells were incubated in a CO2 incubator in humidified atmosphere of 95% air and 5% carbon dioxide at 37° C. After reaching 80-90% confluence, subcultures were prepared. Cells were removed from the flasks with trypsin treatment and counted. For induction of the maturation of osteoblasts and bone formation, the immature osteoblastic cells were plated in type I collagen-coated 96-well plates. The cells were cultured for 8 days with a supplement of ascorbic acid ([…]), and half of the media was changed every 3-4 days. The test compound and control substance (E2) were added in the beginning of the culture period and when the medium was changed. The cultures were stopped at day 8 by removing the culture media from the wells, and cell lysates were prepared. Cellular ALP activity and total protein content (Protein Assay, Bio-Rad Laboratories Inc, CA, USA) were quantitated by using VICTOR2™ Multilabel Counter (PerkinElmer, Waltham, Mass., USA).

[2] = tested on: human osteoclasts; assay: Osteoclast activity assay (resorption index CTX/TRACP 5b); assay type: cell-based
Procedure: In the second part, the culture medium of human osteoclasts was replaced by new medium at day 7, and the formed mature osteoclasts were cultured for an additional 3 days, allowing them to resorb bone. Compound 1 was added into the culture medium at day 7. […] C-terminal cross-linked telopeptides of type I collagen (CTX) were measured in the culture medium collected at day 10 to quantitate bone resorption during days 7-10. […] was measured at day 7 to quantitate osteoclast number before Compound 1 was added. The CTX values were divided by the […] values, resulting as a resorption index that indicates mean osteoclast activity. […] The objective of this study was to investigate the effects of Compound 1 selected by the Sponsor on differentiation and activity of human osteoclasts and mouse osteoblasts in vitro. The effects on osteoclasts were studied using a model where bone marrow-derived human osteoclast precursor cells are cultured on bovine bone slices for 7 days in conditions favouring osteoclast differentiation, and allowed to differentiate into bone-resorbing osteoclasts. After completion of osteoclast differentiation at day 7, the culture medium was removed and new culture medium favouring osteoclast activity was added into the wells. The mature osteoclasts were then cultured for an additional 3 days, allowing them to resorb bone. In the osteoclast differentiation assay, the test compounds and a reference inhibitor osteoprotegerin (OPG) were added into cultures at day 0. In the osteoclast activity assay, the test compounds and a reference inhibitor E64 were added into cultures at day 7. Seven concentrations in 8 replicates were tested in both assays. Tartrate-resistant acid phosphatase 5b activity ([…]) was measured from the culture medium collected at day 7 as an index of the number of osteoclasts formed in each well during the differentiation period. C-terminal cross-linked telopeptides of type I collagen (CTX) was measured from the culture medium collected at day 10 to quantitate bone resorption during days 7-10. A human osteoclast culture system was developed for use in this study where CD34+ osteoclast precursor cells derived from human bone marrow (Poietics® Human Osteoclast Precursors, Lonza, Walkersville, USA) are cultured on bovine bone slices in the presence of appropriate growth factors, including M-CSF and RANK-ligand ([…] et al. 2009). The cells are first allowed to differentiate into mature bone-resorbing osteoclasts, and the formed osteoclasts are then allowed to resorb bone. The test and reference compounds are added into the cell cultures at the beginning of the differentiation and/or the resorption period, and their effects on the differentiation and/or resorbing activity of osteoclasts are determined. Secreted […] is determined from the culture medium after the differentiation period using a commercially available method (BoneTRAPÒ, IDS Ltd, Boldon, UK). Secreted […] describes accurately the number of osteoclasts formed in each well during the differentiation period. CTX is determined from the culture medium after the resorption period using a commercially available method (CrossLapsÒ for cultures, IDS Ltd, Boldon, UK). CTX describes accurately the amount of bone collagen degradation products released into the culture medium in each well during the resorption period. […] In this study, human bone marrow-derived CD34+ stem cells (10000 cells/well) were suspended in culture medium and allowed to attach to bovine bone slices in 96-well tissue culture plates. The culture medium (containing 10% FBS, OCP BulletKit® Lonza, Walkersville, USA) was supplemented with appropriate amounts of important growth factors favoring osteoclast differentiation and activity, including M-CSF (33 ng/ml, OCP BulletKit® Lonza, Walkersville, USA) and RANK-ligand (66 ng/ml, OCP BulletKit® Lonza, Walkersville, USA) in 200 μl of medium. The cells were incubated in a CO2 incubator in humidified atmosphere of 95% air and 5% carbon dioxide at 37° C. […]

[3] = patients with metastatic castration resistant prostate cancer, regardless of prior bisphosphonates; cited from earlier work

COc1cc2nccc(Oc3ccc(NC(=O)C4(C(=O)Nc5ccc(F)cc5)CC4)cc3)c2cc1OC [Compound 1, N-(4-{[6,7-bis(methyloxy)quinolin-4-yl]oxy}phenyl)-N′-(4-fluorophenyl)cyclopropane-1,1-dicarboxamide]
ALP values / osteoblast differentiation ([1]; 3.0 μM): decreased; also recorded: inhibitory effects | ALP values / osteoblast differentiation ([1]; 0.012, 0.037, 0.11, 0.33 and 1.0 μM): increased; also recorded: dose-dependent stimulation | activity at 0.004 µM ([1]; Mus musculus, Osteoblast, 192 h, 0.004 μM Compound 1, read-out: ALP Activity at Day 8, Percent Activity (%) Compared to BL): 109% | activity at 0.012 µM ([1]; Mus musculus, Osteoblast, 192 h, 0.012 μM Compound 1, read-out: ALP Activity at Day 8, Percent Activity (%) Compared to BL): 113% | activity at 0.037 µM ([1]; Mus musculus, Osteoblast, 192 h, 0.037 μM Compound 1, read-out: ALP Activity at Day 8, Percent Activity (%) Compared to BL): 134% | activity at 0.11 µM ([1]; Mus musculus, Osteoblast, 192 h, 0.11 μM Compound 1, read-out: ALP Activity at Day 8, Percent Activity (%) Compared to BL): 181% | activity at 0.33 µM ([1]; Mus musculus, Osteoblast, 192 h, 0.33 μM Compound 1, read-out: ALP Activity at Day 8, Percent Activity (%) Compared to BL): 166% | activity at 1 µM ([1]; Mus musculus, Osteoblast, 192 h, 1.0 μM Compound 1, read-out: ALP Activity at Day 8, Percent Activity (%) Compared to BL): 117% | activity at 3 µM ([1]; Mus musculus, Osteoblast, 192 h, 3.0 μM Compound 1, read-out: ALP Activity at Day 8, Percent Activity (%) Compared to BL): 57% | activity at 0.004 µM ([2]; Homo sapiens, Osteoclast, 0.004 μM Compound 1, read-out: CTX at Day 10 and TRACP 5b Activity at Day 7 (CTX/TRACP 5b), Percent Activity (%) Compared to BL): 84% | activity at 0.012 µM ([2]; Homo sapiens, Osteoclast, 0.012 μM Compound 1, read-out: CTX at Day 10 and TRACP 5b Activity at Day 7 (CTX/TRACP 5b), Percent Activity (%) Compared to BL): 104% | activity at 0.037 µM ([2]; Homo sapiens, Osteoclast, 0.037 μM Compound 1, read-out: CTX at Day 10 and TRACP 5b Activity at Day 7 (CTX/TRACP 5b), Percent Activity (%) Compared to BL): 115% | activity at 0.11 µM ([2]; Homo sapiens, Osteoclast, 0.11 μM Compound 1, read-out: CTX at Day 10 and TRACP 5b Activity at Day 7 (CTX/TRACP 5b), Percent Activity (%) Compared to BL): 107% | activity at 0.33 µM ([2]; Homo sapiens, Osteoclast, 0.33 μM Compound 1, read-out: CTX at Day 10 and TRACP 5b Activity at Day 7 (CTX/TRACP 5b), Percent Activity (%) Compared to BL): 102% | activity at 1 µM ([2]; Homo sapiens, Osteoclast, 1.0 μM Compound 1, read-out: CTX at Day 10 and TRACP 5b Activity at Day 7 (CTX/TRACP 5b), Percent Activity (%) Compared to BL): 111% | activity at 3 µM ([2]; Homo sapiens, Osteoclast, 3.0 μM Compound 1, read-out: CTX at Day 10 and TRACP 5b Activity at Day 7 (CTX/TRACP 5b), Percent Activity (%) Compared to BL): 85% | effect on osteoclast resorption activity ([2]; tested concentrations 0.004-3.0 μM): no effects | plasma CTx [3]: decrease

— US10166225B2, “Method for treating osteoporosis” (Exelixis, Inc., priority 2011, dated 2019)
